In patent US7652061B2, “N-acyl nitrogen heterocycles as ligands of peroxisome proliferator-activated receptors” (Novartis A.G., priority 2003, dated 2010) one finds EC50 data, which are given here for 1 compound.

The target of experiment [1] is T1, hPPARα ligand binding domain (GST-hPPARα LBD) (Homo sapiens, UniProt Q07869).
T1 construct: made in house; host or cells: E. coli BL21(DE3), pGEX vector
T1 sequence (Q07869 167-468): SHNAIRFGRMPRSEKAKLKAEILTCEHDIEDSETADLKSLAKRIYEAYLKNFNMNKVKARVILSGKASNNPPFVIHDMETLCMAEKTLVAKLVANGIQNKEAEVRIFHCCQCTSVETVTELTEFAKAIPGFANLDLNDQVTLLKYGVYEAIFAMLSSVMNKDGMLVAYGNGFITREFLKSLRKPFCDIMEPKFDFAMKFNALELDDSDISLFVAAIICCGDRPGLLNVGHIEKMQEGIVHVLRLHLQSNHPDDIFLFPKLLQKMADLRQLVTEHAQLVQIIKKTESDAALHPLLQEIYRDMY
Description: PPARα functional binding assay (CARLA, TR-FRET). It counts as biochemical. To be noted: SRC-1 peptide recruitment, 3 hours at RT, read-out: EC50 in the PPARα receptor binding assay. The procedure: (§1) The in vitro functional binding to the PPARα, PPARδ and PPARγ receptors is determined as follows:
(§2) The functional binding assays for the PPARα, PPARδ and PPARγ receptors are a variation of the coactivator-dependent receptor ligand assay (CARLA) (see Krey et al., “Fatty Acids, Eicosanoids, and Hypolipidemic Agents Identified as Ligands of Peroxisome Proliferator-Activated Receptors by Coactivator-Dependent Receptor Ligand Assay”, Molecular Endocrinology, Vol. 11, pp. 779-791 (1997)). The present CARLA assays use a TR-FRET detection method previously reviewed (see Hemmila, “LANCE: Homogeneous Assay Plafform for HTS”, J. Biomol. Screening, Vol. 4, pp. 303-307 (1999); Mathis, “HTRF Technology”, J. Biomol. Screening, Vol. 4, pp. 309-313 (1999)). […] This brings the Eu-labeled anti-GST antibody and the strepavidin-labeled APC in close proximity, thereby facilitating fluorescence energy transfer. […] After mixing all components, the reaction mixture stands for 3 hours at RT before reading the TR-FRET (Time-Resolved Fluorescence Resonance Energy Transfer) signal on a Wallac Victor 2 plate reader (measuring the ratio of signals at […]). […]

Experiment [2] concerns the target T2, hPPARγ ligand binding domain (GST-hPPARγ LBD) (Homo sapiens, UniProt P37231).
T2 construct: GST-hPPARγ LBD (amino acids 175-476); made in house; host or cells: E. coli BL21(DE3), pGEX vector
T2 sequence (P37231 175-476 isoform P37231-2): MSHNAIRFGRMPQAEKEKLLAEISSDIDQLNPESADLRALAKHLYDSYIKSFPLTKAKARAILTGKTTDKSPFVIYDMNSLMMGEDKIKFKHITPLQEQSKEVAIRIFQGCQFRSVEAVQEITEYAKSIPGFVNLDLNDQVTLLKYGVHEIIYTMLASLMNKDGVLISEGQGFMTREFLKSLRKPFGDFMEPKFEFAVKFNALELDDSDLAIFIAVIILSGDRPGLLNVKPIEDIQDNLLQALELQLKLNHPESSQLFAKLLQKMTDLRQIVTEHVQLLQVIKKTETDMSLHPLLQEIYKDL
Nature of the experiment: PPARγ functional binding assay (CARLA, TR-FRET). The format is biochemical. To be noted: SRC-1 peptide recruitment, 3 hours at RT, read-out: EC50 in the PPARγ receptor binding assay. The procedure: as §1, §2

With `Cc1oc(-c2ccc(Cl)c(F)c2)nc1COc1cccc(C(C)(C)C(=O)N2CCC[C@@H]2C(=O)O)c1` [Example 9, (R)-1-(2-{3-[2-(4-Chloro-3-fluoro-phenyl)-5-methyl-oxazol-4-yl-methoxy]-phenyl}-2-methyl-propionyl)-pyrrolidine-2-carboxylic acid], the EC50 in experiment [1] is approximately 0.003 µM; in experiment [2] it was approximately 1.8 µM.
